In patent US20260258064A1 (SIRONAX LTD., priority 2023, published 2026):

target: T1, SARM1 (50-724) (Homo sapiens, UniProt Q6SZW1); test: SARM1 (50-724) enzymatic assay (LC-MS/MS); assay type: biochemical; conditions: Purified SARM1 (50-724) 2 nM, NMN as activator, NAD+ as substrate, 1 h at room temperature, read-out: IC50 (SARM1 inhibitory activity)
T1 construct: Purified SARM1 (50-724) with a final concentration of 2 nM was pre-incubated with a test compound
T1 sequence (Q6SZW1 50-724): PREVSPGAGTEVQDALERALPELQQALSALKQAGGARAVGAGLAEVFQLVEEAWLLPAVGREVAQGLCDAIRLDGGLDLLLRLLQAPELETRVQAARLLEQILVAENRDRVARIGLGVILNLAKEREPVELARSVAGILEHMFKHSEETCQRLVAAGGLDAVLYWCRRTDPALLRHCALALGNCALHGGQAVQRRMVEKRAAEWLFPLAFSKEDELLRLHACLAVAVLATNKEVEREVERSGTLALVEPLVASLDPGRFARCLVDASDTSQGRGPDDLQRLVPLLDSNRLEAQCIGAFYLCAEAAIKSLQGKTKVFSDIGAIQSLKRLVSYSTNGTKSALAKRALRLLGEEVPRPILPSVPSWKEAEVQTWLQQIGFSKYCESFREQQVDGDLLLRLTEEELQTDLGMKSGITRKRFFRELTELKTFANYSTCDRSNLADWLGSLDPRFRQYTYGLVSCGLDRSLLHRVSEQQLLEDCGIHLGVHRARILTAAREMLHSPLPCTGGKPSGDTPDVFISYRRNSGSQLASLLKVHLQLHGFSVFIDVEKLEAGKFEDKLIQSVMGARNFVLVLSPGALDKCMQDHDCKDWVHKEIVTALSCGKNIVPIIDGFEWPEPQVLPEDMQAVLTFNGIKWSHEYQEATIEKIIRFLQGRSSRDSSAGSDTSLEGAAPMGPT
Experimental: An enzymatic assay was performed in a 384-well plate using Dulbecco's phosphate-buffered saline (PBS) as the reaction buffer. Purified SARM1 (50-724) with a final concentration of 2 nM was pre-incubated with a test compound at […] final assay concentration for 15 min at room temperature. The reaction was initiated by adding a mixture of […] nicotinamide mononucleotide (NMN) as activator and […] NAD^+ as substrate. After 1 h of incubation at room temperature, the reaction was terminated with 10 times volume of 70% acetonitrile, and then centrifuged at 3800 rpm for 10 min. The samples were analyzed using LC-MS/MS after diluted to a proper concentration by 10 mM ammonium acetate (pH 9.75).
In Table 2, activity is provided as follows: A: IC50≤100 nM; B: 100 nM<IC50≤500 nM; C: 500 nM<IC50≤1000 nM; D: IC50>1000 nM.

Structure (SMILES)	IC50 [nM]
COc1cc(F)c2[nH]c(-c3nncn3-c3cnccc3C(F)(F)F)nc2c1 [Compound 328, 7-fluoro-5-methoxy-2-(4-(4-(trifluoromethyl)pyridin-3-yl)-4H-1,2,4-triazol-3-yl)-1H-benzo[d]imidazole]	≤ 100
FC(F)(F)c1ccc2[nH]c(-c3nncn3-c3cnccc3C(F)(F)F)c(-c3ccccn3)c2c1 [Compound 390, 3-(pyridin-2-yl)-5-(trifluoromethyl)-2-(4-(4-(trifluoromethyl)pyridin-3-yl)-4H-1,2,4-triazol-3-yl)-1H-indole]	≤ 100
COc1cc(-c2nc3cc(C(F)(F)F)ccc3[nH]2)c(-c2cccc(Cl)c2Cl)cn1 [Compound 402, 2-(5-(2,3-dichlorophenyl)-2-methoxypyridin-4-yl)-5-(trifluoromethyl)-1H-benzo[d]imidazole]	100 to 500
FC(F)(F)c1ccc2[nH]c([C@H]3COC[C@@H]3c3ccccc3)nc2c1 (single isomer, unassigned) [Compound 350]	> 1000
CCn1ccc2[nH]c(-c3nncn3-c3cccc(F)c3Cl)cc2c1=O [Compound 308, 2-(4-(2-chloro-3-fluorophenyl)-4H-1,2,4-triazol-3-yl)-5-ethyl-1,5-dihydro-4H-pyrrolo[3,2-c]pyridin-4-one]	100 to 500
COc1cc(-c2ccccc2Cl)c(-c2nc3cc(C(F)(F)F)ccc3[nH]2)nn1 [Compound 405, 2-(4-(2-chlorophenyl)-6-methoxypyridazin-3-yl)-5-(trifluoromethyl)-1H-benzo[d]imidazole]	100 to 500
FC(F)(F)c1ccc2[nH]c(N3CCSCC3c3ccccc3)nc2c1 (stereo not drawn) [Compound 319, 3-phenyl-4-(5-(trifluoromethyl)-1H-benzo[d]imidazol-2-yl)thiomorpholine]	> 1000
O=c1cc(-c2nc3cc(C(F)(F)F)ccc3[nH]2)c(-c2cccc(Cl)c2Cl)cn1CCO [Example 64]	≤ 100
Cc1ccc2[nH]c(-c3cc(C#N)cn3C3CCCC3)nc2c1 [Compound 18, 1-cyclopentyl-5-(5-methyl-1H-benzo[d]imidazol-2-yl)-1H-pyrrole-3-carbonitrile]	100 to 500
Cc1ccc2[nH]c(-n3c(-c4cccc(Cl)c4Cl)noc3=O)nc2c1 [Compound 29, 3-(2,3-dichlorophenyl)-4-(5-methyl-1H-benzo[d]imidazol-2-yl)-1,2,4-oxadiazol-5 (4H)-one]	> 1000
Cn1cc(-c2ccc(Cl)cc2)c(-c2nc3cc(C(F)(F)F)ccc3[nH]2)cc1=O [Example 98]	> 1000
Cc1ccc2[nH]c(-c3ccncc3-c3cccc(Cl)c3Cl)nc2c1 [Example 22]	500 to 1000
FC(F)(F)c1ccc2[nH]c(-c3n[nH]nc3-c3cccc(Cl)c3Cl)nc2c1 [Compound 274, 2-(5-(2,3-dichlorophenyl)-2H-1,2,3-triazol-4-yl)-5-(trifluoromethyl)-1H-benzo[d]imidazole]	500 to 1000
Cc1ccc2[nH]c(-c3nccn3C3CCCC3)nc2c1 [Compound 2, 2-(1-cyclopentylimidazol-2-yl)-5-methyl-1H-benzimidazole]	500 to 1000
CS(=O)(=O)CCOc1ccc(OC(F)(F)F)c(-n2cnnc2-c2nc3cc(C(F)(F)F)ccc3[nH]2)n1 [Compound 267]	≤ 100
FC(F)(F)c1cc2cc(-c3nncn3-c3cnccc3C(F)(F)F)[nH]c2cn1 [Compound 299, 5-(trifluoromethyl)-2-(4-(4-(trifluoromethyl)pyridin-3-yl)-4H-1,2,4-triazol-3-yl)-1H-pyrrolo[2,3-c]pyridine]	> 1000
FC(F)(F)c1ccc2[nH]c(C3CSCCN3c3ccccc3)nc2c1 (stereo not drawn) [Compound 361, 4-phenyl-3-[5-(trifluoromethyl)-1H-benzimidazol-2-yl]thiomorpholine]	> 1000
CC(c1ccccc1)c1cc(F)c2[nH]c(-c3nncn3-c3cnccc3C(F)(F)F)nc2c1 (stereo not drawn) [Compound 431, 7-fluoro-5-(1-phenylethyl)-2-(4-(4-(trifluoromethyl)pyridin-3-yl)-4H-1,2,4-triazol-3-yl)-1H-benzo[d]imidazole]	≤ 100

Other lines, results leading:

IC50 [nM]	Structure (SMILES)
≤ 100	NC(=O)C(F)(F)c1ccc2[nH]c(-c3nncn3-c3ccc(F)c(F)c3Cl)nc2c1 [Compound 463, 2-(2-(4-(2-chloro-3,4-difluorophenyl)-4H-1,2,4-triazol-3-yl)-1H-benzo[d]imidazol-5-yl)-2,2-difluoroacetamide]
≤ 100	Cc1c(Cl)cncc1-n1cnnc1-c1nc2cc(C(F)(F)F)ccc2[nH]1 [Compound 58]
≤ 100	CC(C)Oc1ccc2[nH]c(-c3nncn3-c3cccc(Cl)c3Cl)nc2c1 [compound 109]
≤ 100	Oc1cc(F)c2[nH]c(-c3nncn3-c3cnccc3C(F)(F)F)nc2c1 [Compound 327, 7-fluoro-2-(4-(4-(trifluoromethyl)pyridin-3-yl)-4H-1,2,4-triazol-3-yl)-1H-benzo[d]imidazol-5-ol]
100 to 500	Cc1cnn(C)c1-c1ccc2[nH]c(-c3nncn3-c3cccc(Cl)c3Cl)nc2c1 [Example 81, 2-(4-(2,3-dichlorophenyl)-4H-1,2,4-triazol-3-yl)-5-(1,4-dimethyl-1H-pyrazol-5-yl)-1H-benzo[d]imidazole]
100 to 500	CSc1c(Br)ccc2[nH]c(-c3nncn3-c3cccc(Cl)c3Cl)nc12 [Example 72, 5-bromo-2-(4-(2,3-dichlorophenyl)-4H-1,2,4-triazol-3-yl)-4-(methylthio)-1H-benzo[d]imidazole]
≤ 100	Fc1cc(C(F)(F)F)cc2nc(-c3nncn3-c3cc(C(F)F)ccc3Cl)[nH]c12 [Compound 200, 2-(4-(2-chloro-5-(difluoromethyl)phenyl)-4H-1,2,4-triazol-3-yl)-7-fluoro-5-(trifluoromethyl)-1H-benzo[d]imidazole]
≤ 100	CNC(=O)c1cc(F)c(Cl)c(-n2cnnc2-c2nc3cc(C(F)(F)F)cc(F)c3[nH]2)c1 [Compound 205, 4-chloro-3-fluoro-5-(3-(7-fluoro-5-(trifluoromethyl)-1H-benzo[d]imidazol-2-yl)-4H-1,2,4-triazol-4-yl)-N-methylbenzamide]
100 to 500	FC(F)(F)c1ccc2[nH]c(-c3nnnn3-c3cccc(Cl)c3Cl)nc2c1 [Example 99]
≤ 100	Fc1cccc(-n2c(CN3CC4(CCO4)C3)nnc2-c2nc3cc(C(F)(F)F)ccc3[nH]2)c1Cl [Compound 398, 6-((4-(2-chloro-3-fluorophenyl)-5-(6-(trifluoromethyl)-1H-benzo[d]imidazol-2-yl)-4H-1,2,4-triazol-3-yl)methyl)-1-oxa-6-azaspiro[3.3]heptane]
≤ 100	Fc1c(C2CC(F)(F)C2)ccc2[nH]c(-c3nncn3-c3cnccc3C(F)(F)F)nc12 [Compound 314, 5-(3,3-difluorocyclobutyl)-4-fluoro-2-(4-(4-(trifluoromethyl)pyridin-3-yl)-4H-1,2,4-triazol-3-yl)-1H-benzo[d]imidazole]
≤ 100	FC(F)(F)c1ccc2[nH]c(-c3nnc(CN4CCC4)n3-c3cccc(Cl)c3Cl)nc2c1 [Example 125]
≤ 100	FC(F)(F)Oc1ccccc1-n1cnnc1-c1nc2cc(C(F)(F)F)ccc2[nH]1 [Compound 160]
> 1000	FC(F)(F)c1ccncc1-n1cnnc1-c1nc2c(N3CC4(COC4)C3)c(Cl)ccc2[nH]1 [Compound 357, 6-(5-chloro-2-(4-(4-(trifluoromethyl)pyridin-3-yl)-4H-1,2,4-triazol-3-yl)-1H-benzo[d]imidazol-4-yl)-2-oxa-6-azaspiro[3.3]heptane]
100 to 500	Clc1cccc(-n2cnnc2-c2nc3cc(C4COC4)ccc3[nH]2)c1Cl [Example 55, 2-(4-(2,3-dichlorophenyl)-4H-1,2,4-triazol-3-yl)-5-(oxetan-3-yl)-1H-benzo[d]imidazole]
≤ 100	OC1(c2ccc3[nH]c(-c4nncn4-c4ccc(F)c(F)c4Cl)nc3c2)CC1 [Example 134]
≤ 100	N#CC1(c2ccc3[nH]c(-c4nncn4-c4ccc(F)c(F)c4Cl)nc3c2)CC1 [Example 135]
≤ 100	Cn1cc(OC(F)(F)F)c(-n2cnnc2-c2nc3cc(C(F)(F)F)ccc3[nH]2)cc1=S [Compound 242, 1-methyl-5-(trifluoromethoxy)-4-(3-(5-(trifluoromethyl)-1H-benzo[d]imidazol-2-yl)-4H-1,2,4-triazol-4-yl)pyridine-2(1H)-thione]
